Experimental data published in PubChem BioAssay (NCI).
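96-well plates; 48 h exposure; 5 concentrations. Endpoints by linear interpolation between flanking doses. Not reached: highest tested concentration assigned. At the GI50, growth is halved. TGI: concentration producing complete growth inhibition.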

Tests used:
Assay in all cases: NCI tumour cell line growth inhibition, 48 h
[1] = tested on: NCI-H226 lung
[2] = tested on: SNB-78 CNS
[3] = tested on: MOLT-4 leukemia
[4] = tested on: IGROV1 ovarian
[5] = tested on: DMS 114 small cell lung
[6] = tested on: SW-620 colon
[7] = tested on: SR leukemia
[8] = tested on: COLO 205 colon
[9] = tested on: NCI/ADR-RES ovarian
[10] = tested on: HCC-2998 colon
[11] = tested on: SK-MEL-2 melanoma
[12] = tested on: DLD-1 colon

SMILES | TGI [1] [µM] | TGI [2] [µM] | TGI [3] | TGI [4] | TGI [5] [µM] | GI50 [3] | GI50 [6] | TGI [6] | GI50 [4] | GI50 [7] | TGI [7] | GI50 [8] | TGI [8] | GI50 [9] | TGI [9] | TGI [10] [µM] | TGI [11] [µM] | TGI [12] [µM] | GI50 [10] [µM] | GI50 [11] [µM]
O=C1CCCCC2N(C(c3ccccc3)c3ccccc3)CC[C@@]12c1ccccc1 (mixture of isomers) | > 10 | > 10 | > 10 µM | > 10 µM | > 10 | – | – | – | – | – | – | – | – | – | – | – | – | – | – | –
O=C1NN(C2=NNC3(C(=O)N2)c2ccccc2-c2ccccc23)C(c2ccccc2)=N/C1=C/c1ccc(O)cc1 | – | – | 15 µg/mL | 15 µg/mL | – | 15 µg/mL | 82.5 µg/mL | > 150 µg/mL | 15 µg/mL | 59.7 µg/mL | > 150 µg/mL | > 150 µg/mL | > 150 µg/mL | 50.9 µg/mL | > 150 µg/mL | – | – | – | – | –
Clc1ccccc1/C=C/c1cscn1 | – | > 100 | > 100 µM | – | > 100 | – | – | – | – | – | > 100 µM | – | – | – | – | > 100 | > 100 | > 100 | – | –
Cc1nc2ccccc2n1C(=O)c1c(F)c(F)c(F)c(F)c1F | 65.5 | – | 27.1 µM | 44.8 µM | – | – | – | 49.8 µM | – | – | > 100 µM | – | 77.9 µM | – | 42.4 µM | 34.2 | 46.6 | – | – | –
N#Cc1c(Cl)c2cc([N+](=O)[O-])ccc2n2c1nc1ccccc12 | 34.3 | – | – | – | – | – | – | – | – | – | – | – | 4.67 µM | – | 28 µM | 19.4 | 36.4 | – | – | –
C=CC1(C)CCC2=C(CCC3C(C)(C(=O)OC)CCCC23C)C1=O (stereo not drawn) | 40.2 | 80.1 | – | 37.1 µM | 32.7 | – | – | 33.5 µM | – | – | 42 µM | – | 34.6 µM | – | – | – | 33.9 | 36.5 | – | –
Cc1cc(O)c(C(C)(C)C)cc1Sc1cc(C(C)(C)C)c(O)cc1C | – | – | 8.07 µM | 12.5 µM | – | 2.67 µM | 3.65 µM | 13.7 µM | 2.98 µM | 1.89 µM | 7.23 µM | 2.83 µM | 7.24 µM | 2.78 µM | 7.58 µM | 5.56 | 4.51 | – | 2.45 | 2.46
